Twelve molecules from ChEMBL document CHEMBL1201862, “PubChem BioAssay data set” (2004) can be followed below.

Test systems include A498; OVCAR-4; RXF 393; SF-539; SK-OV-3; SF-268; SNB-19; OVCAR-8; HOP-92; HCT-15; UACC-62; SK-MEL-5; NCI-H522; CCRF-CEM; OVCAR-5; MOLT-4; PC-3; MCF7; MDA-N; NCI/ADR-RES.
Assay in all cases: NCI tumour cell line growth inhibition, 48 h

Structures are written as SMILES.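 A five-concentration, 48-hour dose response in 96-well plates underlies each endpoint, interpolated linearly between surrounding concentrations. GI50 = concentration required for 50% inhibition of growth.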 Activity calls are given as the source filed them. No stated cut-off is given here; in the data, active = GI50 up to about 1.1 µM and inactive = higher. Where only a bound is given, the exact number is not on record here.

Consider `CN1C(=O)CC2(C)c3cc(C=O)ccc3N(C)C12` (configuration not stated), for which the GI50 in the test with A498, in the test on OVCAR-4, in the test on RXF 393, with SF-539, in the test with SK-OV-3 and in the test on SF-268 was > 100 µM (inactive) in each case. Moreover, the GI50 in the test on SNB-19 was > 100 µM (inactive); with OVCAR-8, > 100 µM (inactive); in the test with HOP-92, > 100 µM (inactive); with HCT-15, greater than 100 µM; in the test on UACC-62, > 100 µM (inactive); with SK-MEL-5, > 100 µM (inactive). The GI50 in the test on NCI-H522, with CCRF-CEM, in the test with OVCAR-5 and in the test on MOLT-4 was > 100 µM (inactive) throughout.
On to `CCOC(=O)C(=Cc1ccc(Oc2ccccc2)cc1)C(=O)OCC`, for which the GI50 in the test with A498 is 15.3 µM (inactive); in the test on OVCAR-4 it was 7.59 µM (inactive); in the test on PC-3, 2.16 µM (inactive); in the test with RXF 393, 1.89 µM (inactive); with MCF7, 4.09 µM (inactive); in the test on SF-539, 3.84 µM (inactive). The GI50 in the test on SK-OV-3 is 7.05 µM (inactive); with MDA-N, 4.41 µM (inactive); in the test with SF-268 it was 3.32 µM (inactive); with SNB-19, 5.73 µM (inactive); in the test on OVCAR-8 it was 2.19 µM (inactive); in the test with HOP-92, 4.03 µM (inactive). The GI50 with HCT-15 was 2.44 µM; in the test on UACC-62 it was 1.63 µM (inactive); with SK-MEL-5, 1.98 µM (inactive); with NCI-H522 it was 4.22 µM (inactive); in the test with CCRF-CEM, 2.03 µM (inactive); in the test with OVCAR-5 it was 4.44 µM (inactive). For the same molecule, the GI50 in the test with MOLT-4 was 1.92 µM (inactive).
Take `O=c1oc(C(C(F)(F)F)C(F)(F)F)nc2ccccc12`: the GI50 in the test with A498, in the test with NCI/ADR-RES, in the test on OVCAR-4, in the test on PC-3, in the test with RXF 393 and in the test on MCF7 was > 100 µM (inactive) in each case. In addition, the GI50 with SF-539 is > 100 µM (inactive); with SK-OV-3 it was > 100 µM (inactive); in the test with SNB-19 it was > 100 µM (inactive); with OVCAR-8, > 100 µM (inactive); in the test on HOP-92, > 100 µM (inactive); in the test on HCT-15, greater than 100 µM. Besides, the GI50 with SK-MEL-5, with NCI-H522, in the test with CCRF-CEM, in the test with OVCAR-5 and in the test with MOLT-4 was > 100 µM (inactive) throughout.
For `O=C1COc2cccnc2N1CCCCO`, the GI50 with A498, with PC-3, in the test on RXF 393, in the test on MCF7, with SF-539 and in the test with SK-OV-3 was > 100 µM (inactive) in each case. In addition, the GI50 in the test with MDA-N was > 100 µM (inactive); in the test with SNB-19, > 100 µM (inactive); in the test on HOP-92, > 100 µM (inactive); in the test with HCT-15 it was greater than 100 µM; in the test with UACC-62, > 100 µM (inactive); in the test on SK-MEL-5 it was > 100 µM (inactive). Besides, the GI50 in the test on NCI-H522, with CCRF-CEM, in the test on OVCAR-5 and with MOLT-4 was > 100 µM (inactive) in each case.
For the molecule `CC(=O)C(=N\Nc1ccc(Cl)cc1)/C(C)=N/c1ccc(C)cc1`, the GI50 in the test on A498 is 11.9 µM (inactive); in the test with NCI/ADR-RES it was 25.6 µM (inactive); with OVCAR-4 it was > 100 µM (inactive); in the test on PC-3 it was 28.6 µM (inactive); in the test on RXF 393, 23 µM (inactive); with SK-OV-3, 46 µM (inactive). Moreover, the GI50 in the test on MDA-N was 31.9 µM (inactive); in the test with SF-268, 35.6 µM (inactive); with SNB-19, 63.1 µM (inactive); with OVCAR-8, 35.6 µM (inactive); in the test on HOP-92 it was 16.6 µM (inactive); in the test with HCT-15, 45.6 µM. The GI50 was 49.1 µM (inactive) with UACC-62; 19 µM (inactive) in the test on SK-MEL-5; 19.7 µM (inactive) with NCI-H522; 11.2 µM (inactive) in the test with CCRF-CEM; 34 µM (inactive) in the test on OVCAR-5; 16.7 µM (inactive) in the test on MOLT-4.
As for `COc1ccccc1N1C(=O)CSC1c1cccc(Oc2ccccc2)c1` (configuration not stated), the GI50 was 20.7 µM (inactive) in the test with A498; 19.7 µM (inactive) in the test with NCI/ADR-RES; 18.5 µM (inactive) in the test with OVCAR-4; 17.6 µM (inactive) with PC-3; 17.8 µM (inactive) in the test on RXF 393; 18.2 µM (inactive) in the test with MCF7. In addition, the GI50 is 17.2 µM (inactive) with SF-539; 34.8 µM (inactive) in the test with SK-OV-3; 17.5 µM (inactive) in the test with SF-268; 23.8 µM (inactive) in the test with SNB-19; 17.9 µM (inactive) with OVCAR-8; 12.7 µM (inactive) in the test on HOP-92. Further, the GI50 in the test with HCT-15 was 17.2 µM; in the test with UACC-62, 14.9 µM (inactive); in the test with SK-MEL-5 it was 16.3 µM (inactive); in the test on NCI-H522, 16.2 µM (inactive); with CCRF-CEM, 26.1 µM (inactive); with OVCAR-5, 18.5 µM (inactive). The GI50 in the test on MOLT-4 is 29.9 µM (inactive).
For `O=C(O)CCCc1nc2c(n1Cc1ccccc1)C(=O)c1ccccc1C2=O`, the GI50 was 34.4 µM (inactive) with A498; 36.6 µM (inactive) in the test with NCI/ADR-RES; 20.2 µM (inactive) in the test on OVCAR-4; 29.6 µM (inactive) in the test with MCF7; 69.8 µM (inactive) with SF-539; > 100 µM (inactive) in the test on SK-OV-3. Moreover, the GI50 in the test with MDA-N is 22.5 µM (inactive); in the test with SF-268, 26.1 µM (inactive); in the test with SNB-19 it was > 100 µM (inactive); with OVCAR-8, 36.6 µM (inactive); with HOP-92, 48.9 µM (inactive); in the test with HCT-15 it was 52.4 µM. Moreover, the GI50 with UACC-62 was 17.2 µM (inactive); in the test with NCI-H522 it was 29.4 µM (inactive); with CCRF-CEM, 5.19 µM (inactive); in the test on OVCAR-5, 76.9 µM (inactive); in the test with MOLT-4, 44.9 µM (inactive).
Regarding `COC1=CC2(CC(OC)=C1OC)OC21COc2ccccc2C1=O` (configuration not stated), the GI50 with A498 was > 100 µM (inactive); in the test on NCI/ADR-RES, 85.7 µM (inactive); in the test on OVCAR-4, 84.5 µM (inactive); in the test on PC-3, 84.5 µM (inactive); with RXF 393 it was 46 µM (inactive); in the test on MCF7, 55.7 µM (inactive). For the same molecule, the GI50 in the test with SF-539 was > 100 µM (inactive); in the test with SK-OV-3 it was > 100 µM (inactive); in the test with SF-268 it was > 100 µM (inactive); with SNB-19, 65.2 µM (inactive); with OVCAR-8 it was > 100 µM (inactive); in the test on HOP-92, > 100 µM (inactive). Moreover, the GI50 is 65.8 µM in the test on HCT-15; 60.1 µM (inactive) in the test on UACC-62; 43 µM (inactive) in the test on SK-MEL-5; 75 µM (inactive) in the test with NCI-H522; 32.3 µM (inactive) in the test with CCRF-CEM; > 100 µM (inactive) in the test with OVCAR-5. Also, in the test on MOLT-4, the GI50 is 23 µM (inactive).
In the case of `Cc1nc(C(N)=S)sc1C(=O)C/C(=N/N)C(=O)Nc1ccc(Cl)cc1`, the GI50 is 60.4 µM (inactive) in the test on NCI/ADR-RES; 78.3 µM (inactive) with OVCAR-4; 72.9 µM (inactive) with PC-3; > 100 µM (inactive) in the test with RXF 393; 43.1 µM (inactive) in the test with MCF7; > 100 µM (inactive) in the test with SF-539. Moreover, the GI50 in the test on SK-OV-3 was > 100 µM (inactive); in the test with MDA-N, > 100 µM (inactive); in the test on SF-268, > 100 µM (inactive); in the test on SNB-19, 72.4 µM (inactive); in the test on OVCAR-8 it was 84.1 µM (inactive); in the test on HCT-15, greater than 10 µM. The GI50 is > 100 µM (inactive) in the test with UACC-62; 90.2 µM (inactive) with SK-MEL-5; 31 µM (inactive) in the test on NCI-H522; > 100 µM (inactive) with OVCAR-5; 45.8 µM (inactive) in the test with MOLT-4.
`CC(=O)c1c(CO[N+](=O)[O-])[n+]([O-])c2ccccc2[n+]1[O-]`: the GI50 is > 100 µM (inactive) with NCI/ADR-RES; > 100 µM (inactive) with OVCAR-4; > 100 µM (inactive) with PC-3; 74.3 µM (inactive) with MCF7; > 100 µM (inactive) in the test with SF-539; > 100 µM (inactive) with SK-OV-3. For the same molecule, the GI50 with SF-268 is > 100 µM (inactive); in the test on SNB-19 it was > 100 µM (inactive); in the test on OVCAR-8, > 100 µM (inactive); with HOP-92, > 100 µM (inactive); in the test with HCT-15 it was 30.8 µM; in the test on UACC-62 it was 35.7 µM (inactive). The GI50 in the test on SK-MEL-5 was 68.1 µM (inactive); with NCI-H522, 31.8 µM (inactive); in the test on CCRF-CEM, 37.9 µM (inactive); in the test with OVCAR-5, > 100 µM (inactive); in the test on MOLT-4, 78.3 µM (inactive).
As for `COc1cc2c(c(OC)c1OC)C(=O)[C@@H]1[C@H]2N1C(N)=O`, the GI50 in the test on NCI/ADR-RES was > 100 µM (inactive); in the test on PC-3, > 100 µM (inactive); in the test on RXF 393 it was 79.8 µM (inactive); in the test on MCF7, > 100 µM (inactive); in the test with SF-539, > 100 µM (inactive); with MDA-N it was 88.5 µM (inactive). The GI50 with SF-268 is > 100 µM (inactive); in the test on SNB-19 it was > 100 µM (inactive); in the test with OVCAR-8, > 100 µM (inactive); in the test with HCT-15, greater than 100 µM; in the test with UACC-62, 22.1 µM (inactive); in the test with SK-MEL-5 it was 77.4 µM (inactive). Moreover, the GI50 was > 100 µM (inactive) with NCI-H522, > 100 µM (inactive) in the test on CCRF-CEM, 87.3 µM (inactive) with OVCAR-5 and > 100 µM (inactive) in the test with MOLT-4.
Regarding `COc1cc(/C=C/C(=O)OCCc2ccccc2)ccc1O`, the GI50 in the test with NCI/ADR-RES is 23.7 µM (inactive); in the test with OVCAR-4 it was 13 µM (inactive); in the test with PC-3, 14.2 µM (inactive); with MCF7 it was 20.8 µM (inactive); with SF-539, 18.6 µM (inactive); in the test with SK-OV-3, 16.1 µM (inactive). For the same molecule, the GI50 in the test on MDA-N is 19.1 µM (inactive); in the test on SF-268, 20.5 µM (inactive); in the test on SNB-19, 17.9 µM (inactive); in the test on OVCAR-8, 28.5 µM (inactive); with HCT-15, 21.7 µM; with UACC-62, 12.7 µM (inactive). The GI50 with SK-MEL-5 is 19.5 µM (inactive); in the test with NCI-H522, 5.4 µM (inactive); with OVCAR-5, 18.2 µM (inactive); in the test on MOLT-4 it was 14.5 µM (inactive).
